Experimental data taken from US4616015A, “Triazine derivatives, and pharmaceutical compositions comprising the same” (Fujisawa Pharmaceutical Co., Ltd., priority 1983, dated 1986).
Structures can show the parent of a compound that is named as a salt.

How the values were obtained:
blood pressure = test: Antihypertensive activity (test A): maximum decrease of blood pressure in uninephrectomized DOCA/saline hypertensive rats, oral; type: in vivo, male Wister rats
Experimental: Five-week old male Wister rats were uninephrectomized under anesthesia. Deoxycorticosterone acetate (DOCA) (30 mg/kg), suspended in peanut oil, was injected subcutaneously twice a week and 1% saline was substituted for the drinking water. Animals with mean blood pressure 150-200 mmHg were used for experiment between 5 and 7 weeks after surgery.
The test compounds were administered orally. Blood pressure was measured at the femoral artery by means of a pressure transducer and recorded as electrically integrated values of mean arterial pressure.

platelet aggregation [1] = test: Inhibition of platelet aggregation induced by collagen, platelet rich plasma (test B); type: cell-based; conditions: Oryctolagus cuniculus, inducer collagen (2.5 μg/ml), rabbit PRP, 37° C., read-out: ID50, platelet aggregation, collagen
Experimental: (§1) Platelet rich plasma (PRP) which contains 6.5-7.5×10^8 platelet/ml was prepared from rabbit blood. To the 200 μl of PRP, 5 μl of calcium chloride (1 mM) and 50 μl of pH 7.4 Tris-acetate solution (5 mM) containing 120 mM NaCl and test compound were added successively, and then stirred for 2 min. at 37° C. To the solution, 5 μl of adenosine diphosphate (ADP) (2.5 μM) or collagen (2.5 μg/ml) was added as an aggregation inducer. Aggregation was measured by using an aggregometer (NKK HEMA TRACER 1).

platelet aggregation [2] = test: Inhibition of platelet aggregation induced by ADP, platelet rich plasma (test B); type: cell-based; conditions: Oryctolagus cuniculus, inducer ADP (2.5 μM), rabbit PRP, 37° C., read-out: ID50, platelet aggregation, ADP
Experimental: as §1

ethanol ulcer = test: Ethanol ulcer, area of ulcers (test C); type: in vivo, male Sprague-Dowley rats; conditions: dose c: 32 mg/kg, oral, 30 minutes before ethanol
Experimental: Five male Sprague-Dowley rats, aged 7 weeks and weighing about 200 g, were used per group for the study on ethanol ulcer after the fast for 24 hours.
Test compound was suspended in 0.1% methylcellulose aqueous solution, and the suspension (5 ml/kg) was orally given to each rat.
The control group was given a vehicle, i.e. 0.1% methylcellulose aqueous solution (5 ml/kg), alone in the same way.
Absolute ethanol (5 ml/kg) was orally administered 30 minutes after dosing with test compound, and one hour later, the rats were sacrificed and their stomachs were removed. The area of ulcers of each rat was measured. The mean area (mm^2) in the medicated group was compared with that in the control group.

Structure (SMILES)	Effect Max (mean ratio of maximum decrease of blood pressure) (blood pressure; dose a: 0.1 mg/kg) [%]	Effect Max (mean ratio of maximum decrease of blood pressure) (blood pressure; dose b: 1 mg/kg) [%]	IC50 (platelet aggregation [1]) [nM]	IC50 (platelet aggregation [2]) [nM]	Effect Max (ulcer area vs control) (ethanol ulcer) [%]
CC(Cl)C(=O)Nc1ccc(C2=NNC(=O)NC2C)cc1 (stereo not drawn) [5-(7), 6-[4-(2-Chloropropionylamino)phenyl]-5-methyl-4,5-dihydro-1,2,4-triazin-3(2H)-one]	18.7	51.8	–	–	–
CC(=O)C(=O)Nc1ccc(C2=NNC(=O)NC2C)cc1 (stereo not drawn) [5-(19), 6-(4-Pyruvoylaminophenyl)-5-methyl-4,5-dihydro-1,2,4-triazin-3(2H)-one]	–	–	5.3	110	–
CC1NC(=O)NN=C1c1ccc(NC(=O)[C@@H](C)O)cc1 (stereo partly drawn) [13-(3), 6-(4-D-Lactoylaminophenyl)-5-methyl-4,5-dihydro-1,2,4-triazin-3(2H)-one]	22	50	150	320	–
CC1NC(=O)NN=C1c1ccc(NC(=O)CCC(=O)O)cc1 (stereo not drawn) [13-(4), Sodium 3-[4-(3-methyl-4,5-dihydro-3(2H)-oxo-1,2,4-triazin-6-yl)phenylcarbamoyl]propionate]	–	–	–	–	67.0
CC1NC(=O)NN=C1c1ccc(NCCCN)cc1 (stereo not drawn) [21-(1), 6-[4-(3-aminopropylamino)phenyl]-5-methyl-4,5-dihyro-1,2,4-triazin-3(2H)-one]	–	–	47	190	–
C=CC(=O)Nc1ccc(C2=NNC(=O)NC2C)cc1 (stereo not drawn) [22-(1), 6-(4-Acryloylaminophenyl)-5-methyl-4,5-dihydro-1,2,4-triazin-3(2H)-one]	–	–	16	68	–
CC1NC(=O)NN=C1c1ccc(NC(=O)CN)cc1 (stereo not drawn) [Example 29, 6-(4-glycyclaminophenyl)-5-methyl-4,5-dihydro-1,2,4-triazin-3(2H)-one hydrochloride]	11.1	47.5	–	–	–
